Test: gradient 5% acetonitrile 3 min, to 50% in 2 min, to 85% in 15 min, held 3 min, 100 µL/min
Conditions: column: Zorbax Extend-C18 2.1 x 50 mm; eluents: water / acetonitrile, 0.1% formic acid
Outline: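 Pure standards were analyzed in mixtures of ~100 molecules using HPLC coupled to a quadrupole time-of-flight mass spectrometer, in both positive and negative ionization mode. Separation used a Zorbax Extend-C18 column (2.1 × 50 mm, 1.8 μm) at 100 μL/min, with water and acetonitrile each containing 0.1% formic acid. Dead and dwell volumes were 40 μL and 900 μL, and data were collected over 3 months. Retention time was read from computationally picked adduct peaks, each inspected manually.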

Work on `CCOC(=O)c1c(S(=O)(=O)N2CCC(C(=O)Nc3ccc(C(C)C)cc3)CC2)c(C)n(C)c1C` yielded an RP-LC retention time of 1020 s.

Molecule `CCCNC(=O)C1CCCN(c2ccc(SCC(=O)Nc3cc(C)ccc3C)nn2)C1` (configuration not stated) has an RP-LC retention time of 656 s.

`COc1ccc(NC(=O)Cn2nc3cc(C)nc(N4CCCC4)n3c2=O)cc1` showed an RP-LC retention time of 709 s.

Work on `Cc1ccc(C)c(-c2cc3c4nn(CC(=O)Nc5cc(F)ccc5F)c(=O)n4ccn3n2)c1` yielded an RP-LC retention time of 1050 s.

Molecule `O=C(Nc1ccc(-c2nc3ccccc3[nH]2)cc1)c1cccs1` has an RP-LC retention time of 579 s.

`CCC1(C(=O)Nc2ccc(C)cc2)CCCCC(=O)N1` (configuration not stated) showed an RP-LC retention time of 736 s.

For `CCOC(=O)c1sc2ccccc2c1S(=O)(=O)Nc1ccc2c(c1)OCO2`, the RP-LC retention time was 968 s.

With `O=C(CN1C(=O)C2CCCCN2c2ccc(C(=O)N3CCCC3)cc21)NCc1ccco1` (configuration not stated) the RP-LC retention time was 724 s.

`CC1CN2C=NC(N3CCN(C(=O)Nc4ccc(Cl)cc4F)CC3)=CC2=N1` (configuration not stated) gave an RP-LC retention time of 636 s.

Molecule `CCc1nnc(-c2ccc(=O)n(CC(=O)NCc3ccc(F)c(Cl)c3)c2)o1` has an RP-LC retention time of 713 s.

Work on `CCN1CCN(CCCNC(=O)Cc2c(C(=O)O)c(C)cn2C)CC1` yielded an RP-LC retention time of 549 s.

In the case of `Cc1nc(-c2cnccn2)nc2c1CCC(=O)N2Cc1ccncc1`, the RP-LC retention time is reported as 510 s.

In the case of `O=C(c1cccnc1)N1CCC2(CC1)Nc1cc(F)ccc1-n1cccc12`, the RP-LC retention time is reported as 792 s.

Molecule `O=C(Nc1cccc(Cl)c1)C1CCCN(C(=O)Cc2cccc3ccccc23)C1` (configuration not stated) has an RP-LC retention time of 1070 s.

For `CCOc1ccc(-c2ccc(=O)n(CCNC(=O)c3cn(C)nc3OC)n2)cc1`, the RP-LC retention time was 645 s.

Work on `C=Cc1ccc(Cn2nc3c(S(=O)(=O)N4CCN(c5ccc(F)cc5)CC4)cccn3c2=O)cc1` yielded an RP-LC retention time of 1010 s.

With `O=C(NC1CC1)C1CC(=O)N(c2ccc3c(c2)CCN3C(=O)C2CCC2)C1` (configuration not stated) the RP-LC retention time was 660 s.

`CCc1nc(-c2csc(S(=O)(=O)N3CCCC(C(=O)Nc4ccc(C)cc4C)C3)c2)no1` (configuration not stated) gave an RP-LC retention time of 1070 s.

`CCCN1C(=O)Cc2ccccc2C1C(=O)NCc1cccc(Br)c1` (configuration not stated) showed an RP-LC retention time of 854 s.

Molecule `Cc1cccc(-c2nc(C3CC(=O)N(c4ccc(F)c(Cl)c4)C3)no2)c1` (configuration not stated) has an RP-LC retention time of 1140 s.

With `COc1ccc(-c2noc(Cc3nc(-c4ccc(C)c(C)c4)cs3)n2)cc1` the RP-LC retention time was 1310 s.

For `O=C(CN1CCc2ccccc2C1C(=O)N1CCCC1)Nc1cccc(Br)c1` (configuration not stated), the RP-LC retention time was 921 s.

Molecule `CCCN1CCN(c2ncc3c(n2)CCN(Cc2ccc(CC)cc2)C3)CC1` has an RP-LC retention time of 496 s.

For `Cc1nn(C)c(C)c1S(=O)(=O)N1CCc2c(c(-c3nnc(-c4ccc(F)cc4)o3)nn2C)C1`, the RP-LC retention time was 805 s.

`CC(NC(=O)c1csc(C(=O)NC2CCCC2)n1)c1ccc(F)cc1` (configuration not stated) showed an RP-LC retention time of 931 s.

`COc1cc(OC)cc(-c2noc(-c3nn(-c4ccc(C)cc4)ccc3=O)n2)c1` showed an RP-LC retention time of 916 s.

For `Cc1noc(C2CN(C(=O)Nc3ccc(F)cc3)CC23CCOCC3)n1` (configuration not stated), the RP-LC retention time was 723 s.

`CC(C)CC(C)NC(=O)c1ccc(CN2C(=O)C3CCCN3C(=O)c3ccccc32)cc1` (configuration not stated) showed an RP-LC retention time of 836 s.

`O=C(Nc1ccc(-c2nnc3n2CCCC3)cc1)c1ccco1` showed an RP-LC retention time of 609 s.

With `Cc1ccc(-c2nnc(-c3nn(C)c4c3CN(S(=O)(=O)c3ccccc3F)CC4)o2)cc1` the RP-LC retention time was 970 s.

With `O=C(OCC(=O)c1ccc(Cl)cc1Cl)c1ccc2ccccc2n1` the RP-LC retention time was 991 s.

Work on `COC(=O)c1cc(OCC(=O)Nc2ccc(OC)cc2)c2cc(F)ccc2n1` yielded an RP-LC retention time of 796 s.

With `O=C(NCC1(c2ccc(F)cc2)CC1)c1ccsc1` the RP-LC retention time was 821 s.

Work on `CCN(CC)C(=O)c1sc(-c2cn(C(C)C)c3ncccc23)nc1C` yielded an RP-LC retention time of 902 s.

Work on `Cn1nc(-c2nnc(-c3ccccc3F)o2)c2c1CCN(S(=O)(=O)c1ccc(F)cc1F)C2` yielded an RP-LC retention time of 922 s.

With `CC(C)N(Cc1ccccc1)C(=O)CN1C(=O)CCc2cc(S(=O)(=O)N3CCCCC3C)ccc21` (configuration not stated) the RP-LC retention time was 1060 s.

Work on `CCc1nn2c(CNC(=O)c3ccccc3Br)c(C)nc2s1` yielded an RP-LC retention time of 636 s.

`CCCCc1c(C)n(CC(=O)NCC2CCCO2)c2nc(-c3ccccc3)nn2c1=O` (configuration not stated) showed an RP-LC retention time of 831 s.

Molecule `Cc1cccc(NC(=O)NCCn2c(C(F)(F)F)nc3cccnc32)c1` has an RP-LC retention time of 761 s.

`CCc1ccc(NC(=O)c2cc(CC)n3nccc3n2)cc1` gave an RP-LC retention time of 1140 s.

Work on `O=C(C1CCCN(Cc2nc(-c3ccncc3)no2)C1)N1CCN(c2ncccn2)CC1` (configuration not stated) yielded an RP-LC retention time of 559 s.

For `CCOC(=O)c1ccc(N2C=C(C(=O)OC)S(=O)(=O)c3cc(F)ccc32)cc1`, the RP-LC retention time was 861 s.

With `O=C(CCc1nnc2ccc(NCc3ccc(F)cc3)nn12)N1CCN(c2ccccn2)CC1` the RP-LC retention time was 612 s.

For `CCC(C)C(NC(=O)c1cc(OC)cc(OC)c1)C(=O)Nc1nc2ccccc2[nH]1` (configuration not stated), the RP-LC retention time was 769 s.

Molecule `CCc1ccc(-c2noc(CN3C(=O)COc4ccccc43)n2)cc1` has an RP-LC retention time of 1120 s.

Molecule `Cc1nn2c(CNC(=O)c3ccc(Br)cc3)c(C)nc2s1` has an RP-LC retention time of 656 s.

In the case of `COc1ccc(-c2cn3cccnc3n2)cc1NC(=O)c1ccc(C(F)(F)F)cc1`, the RP-LC retention time is reported as 778 s.

Molecule `Cc1ccccc1Nc1c(-c2cccc(Cl)c2)nc2ccc(Br)cn12` has an RP-LC retention time of 1120 s.

`CS(=O)(=O)N1CCC(C(=O)NCC(O)c2ccc(C(F)(F)F)cc2)CC1` (configuration not stated) showed an RP-LC retention time of 652 s.

`Cc1nc(-c2cc(S(=O)(=O)N(C)C3CCCCC3)cn2C)sc1C(=O)N1CCCC1` gave an RP-LC retention time of 959 s.

Work on `Cc1sc(NC(=O)c2ccccc2C(=O)O)nc1-c1ccccc1` yielded an RP-LC retention time of 855 s.

For `CS(=O)(=O)N1CCCC(C(=O)Nc2nccs2)C1` (configuration not stated), the RP-LC retention time was 627 s.

For `Cc1nc(-c2cc(S(=O)(=O)NCc3ccc(F)c(Cl)c3)c(C)s2)cs1`, the RP-LC retention time was 1010 s.

Work on `Cc1cccc(-c2nnc(C)c(N3CCN(c4ccccn4)CC3)n2)c1` yielded an RP-LC retention time of 589 s.

`c1ccc(-c2nc3nccc(-c4ccncc4)n3n2)cc1` gave an RP-LC retention time of 699 s.

In the case of `CCN1C(=O)c2cccnc2Sc2cc(NC(=O)c3ccc(F)c(Cl)c3)ccc21`, the RP-LC retention time is reported as 964 s.

`CCn1nc(C)c(-c2cc(C(=O)N3CCCCCCNC(=O)[C@@H]4CCCC[C@@H]43)no2)c1C` showed an RP-LC retention time of 834 s.

Molecule `CCOC(=O)C(CC)n1cccc1-c1nc(-c2cccnc2)no1` (configuration not stated) has an RP-LC retention time of 1010 s.

For `O=C(Nc1nnc(C2CC(=O)N(c3ccc(Cl)cc3)C2)o1)c1ccc(C(F)(F)F)cc1` (configuration not stated), the RP-LC retention time was 884 s.

Work on `Cn1nc(C(=O)N2CCCC2)c2c1CCN(C(=O)Nc1ccc(F)cc1F)C2` yielded an RP-LC retention time of 718 s.

`Cc1noc([C@@H]2CN(C(=O)CCc3nc4ccccc4s3)C[C@H]2C(N)=O)n1` gave an RP-LC retention time of 650 s.

`Cc1ccc(Cn2nc3c(S(=O)(=O)N4CCCC4)cccn3c2=O)cc1` gave an RP-LC retention time of 880 s.

Molecule `O=C(C1CCN(c2cnc3nccnc3c2)CC1)N1CCCCC1` has an RP-LC retention time of 648 s.

Work on `CCOCCCNC(=O)C1(C)Cn2c(ccc2-c2ccco2)C(=O)N1c1ccc(OC)c(OC)c1` (configuration not stated) yielded an RP-LC retention time of 752 s.

Work on `O=S(=O)(c1cccnc1)N1CCCC(Cn2c(C3CC3)nc3cccnc32)C1` (configuration not stated) yielded an RP-LC retention time of 650 s.

`COC(=O)c1c(NCCc2ccc(Cl)cc2)c2ccc(F)cc2[nH]c1=O` gave an RP-LC retention time of 795 s.

Work on `COCCNC(=O)c1ccc2c(c1)nc(C)n2-c1ccc(Br)cc1` yielded an RP-LC retention time of 666 s.

For `COc1ccc(N2CCN(C(=O)c3cc(-c4ccncc4)cn3C)CC2)cc1`, the RP-LC retention time was 599 s.

Work on `CS(=O)(=O)N1CCC(C(=O)NCCc2ccccc2)Oc2ccc(Cl)cc21` (configuration not stated) yielded an RP-LC retention time of 919 s.

Molecule `Cc1nc(-c2csc(S(=O)(=O)N3CCC(C(=O)N4CCC(C)CC4)CC3)c2)no1` has an RP-LC retention time of 903 s.

For `Cc1sc(-c2cc(C(F)(F)F)on2)cc1S(=O)(=O)NCCc1ccc(Cl)cc1`, the RP-LC retention time was 1220 s.

With `O=C(Cn1cccc(-c2nc(-c3ccc(Br)cc3)no2)c1=O)Nc1cccc(F)c1` the RP-LC retention time was 992 s.

Molecule `CCC1c2nccn2CCCN1C(=O)CCc1c(C)noc1C` (configuration not stated) has an RP-LC retention time of 623 s.

For `CCCC(=O)Nc1ccc2c(c1)CN(C(=O)c1ccccc1Cl)C(C(=O)N(C)C)C2` (configuration not stated), the RP-LC retention time was 707 s.

Molecule `Cc1nc(S(=O)(=O)N2CCC(C(=O)N3CCN(c4ccccc4)CC3)CC2)cn1C` has an RP-LC retention time of 687 s.

For `CCN1C(=O)C(C)(C(=O)NCc2ccc(OC)cc2)Oc2cccnc21` (configuration not stated), the RP-LC retention time was 803 s.

`CCOC(=O)c1[nH]c(C)c(CN(Cc2ccc3c(c2)OCO3)C(=O)C2CC2)c1C` gave an RP-LC retention time of 929 s.

For `CCN1CCN(C(=O)CN2c3ccc(Br)cc3-c3ccccc3S2(=O)=O)CC1`, the RP-LC retention time was 670 s.

In the case of `COCc1noc([C@@H]2CN(C(=O)CCc3c(C)noc3C)C[C@H]2C(N)=O)n1`, the RP-LC retention time is reported as 607 s.

`Cc1cc2nn(CC(=O)Nc3ccccc3)c(=O)n2c(Nc2ccccc2)n1` gave an RP-LC retention time of 965 s.

Work on `O=C(c1cc(F)cc(F)c1)N1CCc2nc(-c3ccccc3)ncc2C1` yielded an RP-LC retention time of 946 s.

For `CCc1noc2nc(C)n(CC(=O)NCC(C)c3ccccc3)c(=O)c12` (configuration not stated), the RP-LC retention time was 835 s.

Work on `CCOc1cccc(C2CC(c3ccccc3)=NC3(CCN(C(C)C)CC3)N2)c1O` (configuration not stated) yielded an RP-LC retention time of 612 s.

For `Cc1noc(C)c1CCNC(=O)c1ccc2ccnc(N3CCN(c4ccc(F)cc4)CC3)c2c1`, the RP-LC retention time was 731 s.

`CC(O)(c1ccccc1)C(c1ccccc1)C1CCCCN1` (configuration not stated) gave an RP-LC retention time of 747 s.

With `CN(C)S(=O)(=O)c1ccc(-c2nnc(C(=O)NCc3ccncc3)o2)cc1` the RP-LC retention time was 604 s.

Work on `O=C(c1ccc2ccccc2n1)N1CC2CN(S(=O)(=O)c3ccccc3)CC(C1)O2` yielded an RP-LC retention time of 769 s.
